Data as given in ChEMBL document CHEMBL1201862, “PubChem BioAssay data set” (2004).
The source made the active and inactive calls.

Assays:
NADPH oxidase 1 = NADPH oxidase 1 (Homo sapiens, UniProt Q9Y5S8); type: functional, cell-based;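 further: Cell-based assay with luminescence read-out, IC50 derived from inhibitor dose-response curves; intracellular ROS from endogenous NOX1 in intact HT29 colon cancer cells; potency of inhibitors that lower the ROS luminescence signal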
Estrogen receptor beta [1] = biological target: T1, Estrogen receptor beta (Homo sapiens, UniProt Q92731);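 further: recombinant ER-beta bound to coactivator SRC1 peptide in presence of estradiol agonist; inhibitors block coactivator peptide binding and lower the FRET signal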
T1 sequence (Q92731 whole entry): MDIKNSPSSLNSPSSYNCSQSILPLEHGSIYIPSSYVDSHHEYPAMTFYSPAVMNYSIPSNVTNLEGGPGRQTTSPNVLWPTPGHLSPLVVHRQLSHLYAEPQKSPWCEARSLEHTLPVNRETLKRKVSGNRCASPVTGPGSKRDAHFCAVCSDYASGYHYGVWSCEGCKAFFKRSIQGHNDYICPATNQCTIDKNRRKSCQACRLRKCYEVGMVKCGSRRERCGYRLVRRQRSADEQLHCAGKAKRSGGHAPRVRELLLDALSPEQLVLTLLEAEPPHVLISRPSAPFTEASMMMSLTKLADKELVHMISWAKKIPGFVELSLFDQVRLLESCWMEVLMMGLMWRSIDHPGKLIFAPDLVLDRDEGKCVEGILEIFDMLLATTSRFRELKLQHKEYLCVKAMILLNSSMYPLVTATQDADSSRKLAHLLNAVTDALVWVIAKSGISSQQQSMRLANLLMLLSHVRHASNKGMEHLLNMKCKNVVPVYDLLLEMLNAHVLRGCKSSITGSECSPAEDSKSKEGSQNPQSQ

Protein RecA = biological target: T2, Protein RecA (Mycobacterium tuberculosis, UniProt P9WHJ3); assay: Fluorescence Cell-Free Homogeneous Dose Retest to Identify Inhibitors of RecA-Intein Splicing Activity. [Related pubchem assays (depositor defined):AID2097, AID2223, AID489010, AID492950]; type: functional
T2 sequence (P9WHJ3 whole entry): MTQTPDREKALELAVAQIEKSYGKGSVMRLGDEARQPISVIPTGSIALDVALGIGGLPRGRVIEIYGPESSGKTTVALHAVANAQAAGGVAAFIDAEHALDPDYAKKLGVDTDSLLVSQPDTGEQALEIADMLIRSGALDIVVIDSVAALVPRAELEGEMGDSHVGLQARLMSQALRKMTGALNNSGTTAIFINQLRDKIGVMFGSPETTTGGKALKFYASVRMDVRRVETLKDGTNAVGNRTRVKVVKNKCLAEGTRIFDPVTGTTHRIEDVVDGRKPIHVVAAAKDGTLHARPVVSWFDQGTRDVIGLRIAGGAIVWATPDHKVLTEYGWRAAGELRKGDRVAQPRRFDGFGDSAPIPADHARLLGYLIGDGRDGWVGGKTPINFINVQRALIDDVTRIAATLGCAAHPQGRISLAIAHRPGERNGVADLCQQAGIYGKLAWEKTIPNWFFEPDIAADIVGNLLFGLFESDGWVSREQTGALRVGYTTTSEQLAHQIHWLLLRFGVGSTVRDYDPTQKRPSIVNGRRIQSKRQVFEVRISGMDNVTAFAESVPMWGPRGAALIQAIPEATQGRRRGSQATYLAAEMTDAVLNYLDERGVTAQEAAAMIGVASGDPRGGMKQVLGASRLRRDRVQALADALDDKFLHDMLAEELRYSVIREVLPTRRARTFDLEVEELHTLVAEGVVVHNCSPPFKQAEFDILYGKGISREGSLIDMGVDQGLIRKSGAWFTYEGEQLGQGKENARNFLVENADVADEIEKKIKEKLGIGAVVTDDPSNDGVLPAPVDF

[2] = biological target: T3, Replicative DNA helicase DnaB (Mycobacterium tuberculosis, UniProt P9WMR3); assay: DnaB intein splicing inhibitors, dose response, biochemical, cell-free fluorescence (AID 449749); type: functional
T3 sequence (P9WMR3 whole entry): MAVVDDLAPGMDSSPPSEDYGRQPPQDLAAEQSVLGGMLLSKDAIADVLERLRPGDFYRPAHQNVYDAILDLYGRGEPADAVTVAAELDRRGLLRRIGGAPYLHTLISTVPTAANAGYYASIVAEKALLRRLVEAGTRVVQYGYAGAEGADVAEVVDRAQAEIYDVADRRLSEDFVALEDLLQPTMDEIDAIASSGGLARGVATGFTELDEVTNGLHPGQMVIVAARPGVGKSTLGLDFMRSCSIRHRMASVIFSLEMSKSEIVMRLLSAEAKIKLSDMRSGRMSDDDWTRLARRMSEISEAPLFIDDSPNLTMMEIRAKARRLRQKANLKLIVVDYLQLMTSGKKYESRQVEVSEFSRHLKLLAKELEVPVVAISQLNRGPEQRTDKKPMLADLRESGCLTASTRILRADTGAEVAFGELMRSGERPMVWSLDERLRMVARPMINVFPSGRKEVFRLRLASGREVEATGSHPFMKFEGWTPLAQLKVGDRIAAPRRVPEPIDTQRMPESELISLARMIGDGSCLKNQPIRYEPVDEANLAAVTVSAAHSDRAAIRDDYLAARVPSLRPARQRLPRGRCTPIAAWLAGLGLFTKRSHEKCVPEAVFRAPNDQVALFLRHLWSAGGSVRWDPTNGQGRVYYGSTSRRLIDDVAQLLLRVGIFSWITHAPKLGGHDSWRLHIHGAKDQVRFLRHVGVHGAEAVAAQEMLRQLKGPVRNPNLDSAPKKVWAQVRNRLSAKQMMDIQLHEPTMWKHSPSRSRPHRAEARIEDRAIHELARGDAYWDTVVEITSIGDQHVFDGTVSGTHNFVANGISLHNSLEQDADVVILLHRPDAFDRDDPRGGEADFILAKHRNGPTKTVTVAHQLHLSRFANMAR

Estrogen receptor beta [3] = biological target: T1, Estrogen receptor beta; assay: blockers of SRC-3 recruitment to ERβ – biochemical, ELISA, streptavidin-HRP readout, orthogonal assay, confirmation (AID 1060)

NADPH oxidase 1, sequence (Q9Y5S8 whole entry): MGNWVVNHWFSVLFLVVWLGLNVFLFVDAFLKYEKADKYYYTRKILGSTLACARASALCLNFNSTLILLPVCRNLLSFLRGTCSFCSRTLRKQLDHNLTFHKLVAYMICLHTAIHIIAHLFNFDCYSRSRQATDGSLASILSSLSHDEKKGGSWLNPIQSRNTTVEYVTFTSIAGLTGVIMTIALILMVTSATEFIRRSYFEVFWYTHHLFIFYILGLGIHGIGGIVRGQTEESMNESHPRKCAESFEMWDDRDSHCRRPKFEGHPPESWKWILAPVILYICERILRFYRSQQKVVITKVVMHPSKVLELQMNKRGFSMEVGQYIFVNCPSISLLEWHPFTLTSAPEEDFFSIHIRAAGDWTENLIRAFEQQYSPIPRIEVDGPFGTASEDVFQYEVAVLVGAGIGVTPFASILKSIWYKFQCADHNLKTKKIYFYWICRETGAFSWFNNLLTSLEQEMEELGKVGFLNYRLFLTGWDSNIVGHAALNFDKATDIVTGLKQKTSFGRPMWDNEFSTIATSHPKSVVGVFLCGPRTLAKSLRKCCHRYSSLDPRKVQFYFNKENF

Compound	IC50 (NADPH oxidase 1)	IC50 (Estrogen receptor beta [1])	EC50 (Protein RecA)	AC50 [2]	IC50 (Estrogen receptor beta [3])
c1ccc(-c2nc(-c3ccccc3)c(-c3ccccc3)o2)cc1	> 17 µM (not active)	–	–	–	–
CC1(N2CCOCC2)CC2(O)C(=[N+]1[O-])CCc1nonc12 (stereo not given)	–	12 µM (active)	11.9 µM (active)	> 380 µM (inactive)	0.256 µM (not active)
